For 22 molecules, IC50, special symptoms and survival of rats results are on record in US6077840A, “Tetrahydrobenzindolone derivatives” (Meiji Seika Kaisha, Ltd., priority 1996, dated 2000).

SMILES strings stand for the structures.

The target of series [1] is T1, progesterone receptor (Sus scrofa, UniProt D0EWS6).
T1 construct: thereby preparing a cytosol containing progesterone receptor; from tissue; host or cells: hog uterus, cytosol (100,000×g supernatant)
T1 sequence (D0EWS6 1-934): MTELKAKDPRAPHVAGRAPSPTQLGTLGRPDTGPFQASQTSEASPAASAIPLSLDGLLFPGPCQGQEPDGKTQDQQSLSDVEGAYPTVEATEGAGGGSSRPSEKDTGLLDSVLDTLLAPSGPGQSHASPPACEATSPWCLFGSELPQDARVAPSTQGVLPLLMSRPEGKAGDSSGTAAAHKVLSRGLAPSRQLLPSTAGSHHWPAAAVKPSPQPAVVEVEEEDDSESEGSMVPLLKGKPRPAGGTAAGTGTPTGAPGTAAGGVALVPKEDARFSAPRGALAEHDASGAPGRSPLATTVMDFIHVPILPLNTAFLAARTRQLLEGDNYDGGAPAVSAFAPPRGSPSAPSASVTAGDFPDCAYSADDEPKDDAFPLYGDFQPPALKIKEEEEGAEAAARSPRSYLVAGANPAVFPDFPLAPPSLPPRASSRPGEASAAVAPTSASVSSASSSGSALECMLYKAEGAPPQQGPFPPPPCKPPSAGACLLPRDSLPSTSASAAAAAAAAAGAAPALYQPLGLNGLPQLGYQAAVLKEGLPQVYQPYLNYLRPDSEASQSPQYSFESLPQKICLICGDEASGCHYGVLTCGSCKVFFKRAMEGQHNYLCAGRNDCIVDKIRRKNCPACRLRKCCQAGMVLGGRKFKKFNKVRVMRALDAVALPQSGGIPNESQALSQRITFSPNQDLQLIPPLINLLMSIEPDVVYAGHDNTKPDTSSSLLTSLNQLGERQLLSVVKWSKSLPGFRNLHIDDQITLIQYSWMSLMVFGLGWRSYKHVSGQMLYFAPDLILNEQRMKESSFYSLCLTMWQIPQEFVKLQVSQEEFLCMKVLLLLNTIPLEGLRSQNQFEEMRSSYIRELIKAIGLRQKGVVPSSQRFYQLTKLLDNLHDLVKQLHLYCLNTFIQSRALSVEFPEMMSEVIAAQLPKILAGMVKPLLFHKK
Nature of the series: progesterone receptor binding inhibition ([^3 H]-progesterone, hog uterus cytosol). On the set-up: species or system hogs. As to conditions: [^3 H]-progesterone ligand, 60 min at 4° C., read-out: Inhibitory activity against progesterone receptor binding (IC50). The protocol: Uteri taken from hogs in 5 mM phosphate buffer were disrupted using Polytron homogenizer, and the resulting solution was centrifuged (100,000×g, 30 min) to separate the supernatant, thereby preparing a cytosol containing progesterone receptor. […] Then, 100 μl of a 0.5% activated carbon solution was added to the reaction solution, and the mixture was allowed to stand for 10 min and then centrifuged (2,000×g, 10 min). The radioactivity of the supernatant was measured with a liquid scintillation counter.
Separately, the radioactivity was measured in the same manner as described above, except that no test drug was added. Further, the radioactivity was measured in the same manner as described above, except that 10 μl of Medroxyprogesterone Acetate (MPA) (10 μg/ml) was added instead of the test drug. The radioactivity with no test drug added was defined as the amount of total binding of [^3 H]-progesterone to the cytosol, and the radioactivity with MPA added was defined as the amount of non-specific binding. The inhibition ratio was calculated from these measured values by the following equation to determine the binding inhibitory activity (IC50).
Inhibition ratio (%)= [formula]

Series [2] is described as follows: Test on Toxicity upon Continuous Administration. Type of series: in vivo. The note with it: 60 mg/kg, subcutaneous, 16 week-old male SD rats (five). As for the experimental part:
A homogeneous suspension of the compound, according to the present invention, prepared in Example 8 in a 0.2% aqueous methyl cellulose solution was subcutaneously administered to 16 week-old male SD rats (five rats). The dose of the compound prepared in Example 8 was 60 mg/kg.

For the molecule `CCC(=O)O[C@H]1[C@H](OC(C)=O)C=C2C=C3C(=C(C)C(=O)N3C)C[C@]2(C)[C@H]1C` [Example 3, (4aR,5R,6R,7R)-7-Acetoxy-6-propionyloxy-4a,5,6,7-tetrahydro-1,3,4a,5-tetramethylbenz[f]indol-2(4H)-one], the IC50 – broadly, the concentration needed to halve the response being measured – in series [1] was 28 nM. As to `CO[C@@H]1C=C2C=C3C(=C(C)C(=O)N3C)C[C@]2(C)[C@@H](C)[C@H]1OC(=O)c1ccco1` [Example 32, (4aR,5R,6R,7R)-6-(2-Furancarbonyloxy)-7-methoxy-4a,5,6,7-tetrahydro-1,3,4a,5-tetramethylbenz[f]indol-2(4H)-one], the IC50 in series [1] was 27 nM. Regarding `CCCO[C@H]1[C@H](OC)C=C2C=C3C(=C(C)C(=O)N3C)C[C@]2(C)[C@H]1C` [Example 36, (4aR,5R,6R,7R)-7-Methoxy-6-propoxy-4a,5,6,7-tetrahydro-1,3,4a,5-tetramethylbenz[f]indol-2(4H)-one], the concentration for half-maximal inhibition (IC50) in series [1] worked out at 51 nM. As for `CCC(=O)O[C@H]1[C@H](OC)C=C2C=C3C(=C(C)C(=O)N3C)C[C@]2(C)[C@H]1C` [Example 26, (4aR,5R,6R,7R)-7-Methoxy-6-propionyloxy-4a,5,6,7-tetrahydro-1,3,4a,5-tetramethylbenz[f]indol-2(4H)-one], in series [1], the IC50 was 17 nM.

On to `CO[C@H]1[C@H](OC)C=C2C=C3C(=C(C)C(=O)N3C)C[C@]2(C)[C@H]1C` [Example 34, (4aR,5R,6R,7R)-6,7-Dimethoxy-4a,5,6,7-tetrahydro-1,3,4a,5-tetramethylbenz[f]indol-2(4H)-one], for which the IC50 in series [1] was found to be 42 nM. Still for that read-out and setting: to `CCS[C@@H]1C=C2C=C3C(=C(C)C(=O)N3C)C[C@]2(C)[C@@H](C)[C@H]1OC(=O)CC` [Example 101, (4aR,5R,6R,7R)-7-Ethylthio-6-propionyloxy-4a,5,6,7-tetrahydro-1,3,4a,5-tetramethylbenz[f]indol-2(4H)-one] belongs 164 nM. For `CCC(=O)O[C@H]1[C@H](OC(=O)CC)C=C2C=C3C(=C(C)C(=O)N3C)C[C@]2(C)[C@H]1C` [Example 8, (4aR,5R,6R,7R)-6,7-Dipropionyloxy-4a,5,6,7-tetrahydro-1,3,4a,5-tetramethylbenz[f]indol-2(4H)-one], in series [2], the special symptoms entry was “without no special symptom” and the survival of rats result is recorded as “All the rats remained survived”. As for `CCS[C@@H]1C=C2C=C3C(=C(C)C(=O)N3C)C[C@]2(C)[C@@H](C)[C@H]1OC(=O)N1CCCC1` [Example 108, (4aR,5R,6R,7R)-7-Ethylthio-6-(pyrrolidin-1-ylcarbonyloxy)-4a,5,6,7-tetrahydro-1,3,4a,5-tetramethylbenz[f]indol-2(4H)-one], the IC50 in series [1] was 155 nM.

Regarding `CCC(=O)O[C@H]1CC=C2C=C3C(=C(C)C(=O)N3C)C[C@]2(C)[C@H]1C` [Example 113, (4aR,5R,6S)-6-Propionyloxy-4a,5,6,7-tetrahydro-1,3,4a,5-tetramethylbenz[f]indol-2(4H)-one], the IC50 in series [1] was found to be 99 nM. For the molecule `CC1=C2C[C@@]3(C)C(=CC[C@H](OC(=O)n4ccnc4)[C@@H]3C)C=C2N(C)C1=O` [Example 115, (4aR,5R,6S)-6-(Imidazol-1-ylcarbonyloxy)-4a,5,6,7-tetrahydro-1,3,4a,5-tetramethylbenz[f]indol-2(4H)-one], the 50% inhibitory concentration (IC50) in series [1] amounted to 22 nM. Take `CO[C@@H]1C=C2C=C3C(=C(C)C(=O)N3C)C[C@]2(C)[C@@H](C)[C@H]1OC(=O)c1cccs1` [Example 31, (4aR,5R,6R,7R)-7-Methoxy-4a,5,6,7-tetrahydro-1,3,4a,5-tetramethyl-6-(2-thiophenecarbonyloxy)benz[f]indol-2(4H)-one]: in series [1], the IC50 was found to be 47 nM.

Take `CC1=C2C[C@@]3(C)C(=CC[C@H](OC(=O)N4CCCC4)[C@@H]3C)C=C2N(C)C1=O` [Example 117, (4aR,5R,6S)-6-(Pyrrolidin-1-ylcarbonyloxy)-4a,5,6,7-tetrahydro-1,3,4a,5-tetramethylbenz[f]indol-2(4H)-one]: the IC50 in series [1] is 31 nM.

In the case of `CCCNC(=O)O[C@H]1[C@H](SCC)C=C2C=C3C(=C(C)C(=O)N3C)C[C@]2(C)[C@H]1C` [Example 107, (4aR,5R,6R,7R)-7-Ethylthio-6-propylcarbamoyloxy-4a,5,6,7-tetrahydro-1,3,4a,5-tetramethylbenz[f]indol-2(4H)-one], the IC50 in series [1] stood at 156 nM. As to `CO[C@@H]1C=C2C=C3C(=C(C)C(=O)N3C)C[C@]2(C)[C@@H](C)[C@H]1OC(C)=O` [Example 25, (4aR,5R,6R,7R)-6-Acetoxy-7-methoxy-4a,5,6,7-tetrahydro-1,3,4a,5-tetramethylbenz[f]indol-2(4H)-one], the concentration for half-maximal inhibition (IC50) in series [1] was found to be 25 nM. As to `CC(=O)O[C@@H]1C=C2C=C3C(=C(C)C(=O)N3C)C[C@]2(C)[C@@H](C)[C@H]1OC(=O)c1ccco1` [Example 4, (4aR,5R,6R,7R)-7-Acetoxy-6-(2-furancarbonyloxy)-4a,5,6,7-tetrahydro-1,3,4a,5-tetramethylbenz[f]indol-2(4H)-one], the IC50 in series [1] is 32 nM.

In the case of `CCC(=O)O[C@H]1[C@H](SC)C=C2C=C3C(=C(C)C(=O)N3C)C[C@]2(C)[C@H]1C` [Example 97, (4aR,5R,6R,7R)-7-Methylthio-6-propionyloxy-4a,5,6,7-tetrahydro-1,3,4a,5-tetramethylbenz[f]indol-2(4H)-one], the concentration for half-maximal inhibition (IC50) in series [1] is 64 nM.

For `CCS[C@@H]1C=C2C=C3C(=C(C)C(=O)N3C)C[C@]2(C)[C@@H](C)[C@H]1OC(=O)n1ccnc1` [Example 106, (4aR,5R,6R,7R)-7-Ethylthio-6-(imidazol-1-ylcarbonyloxy)-4a,5,6,7-tetrahydro-1,3,4a,5-tetramethylbenz[f]indol-2(4H)-one], in series [1], the IC50 is 137 nM. Still for that read-out and setting: then `CS[C@@H]1C=C2C=C3C(=C(C)C(=O)N3C)C[C@]2(C)[C@@H](C)[C@H]1OC(=O)n1ccnc1` [Example 99, (4aR,5R,6R,7R)-6-(Imidazol-1-ylcarbonyloxy)-7-methylthio-4a,5,6,7-tetrahydro-1,3,4a,5-tetramethylbenz[f]indol-2(4H)-one], with 66 nM; and `CCO[C@H]1[C@H](OC)C=C2C=C3C(=C(C)C(=O)N3C)C[C@]2(C)[C@H]1C` [Example 35, (4aR,5R,6R,7R)-6-Ethoxy-7-methoxy-4a,5,6,7-tetrahydro-1,3,4a,5-tetramethylbenz[f]indol-2(4H)-one], with 36 nM; and `CCCNC(=O)O[C@H]1CC=C2C=C3C(=C(C)C(=O)N3C)C[C@]2(C)[C@H]1C` [Example 116, (4aR,5R,6S)-6-Propylcarbamoyloxy-4a,5,6,7-tetrahydro-1,3,4a,5-tetramethylbenz[f]indol-2(4H)-one], with 19 nM. `C=CCO[C@H]1[C@H](OC)C=C2C=C3C(=C(C)C(=O)N3C)C[C@]2(C)[C@H]1C` [Example 41, (4aR,5R,6R,7R)-7-Methoxy-6-(2-propenyloxy)-4a,5,6,7-tetrahydro-1,3,4a,5-tetramethylbenz[f]indol-2(4H)-one]: the IC50 in series [1] was found to be 44 nM.

Take `CCS[C@@H]1C=C2C=C3C(=C(C)C(=O)N3C)C[C@]2(C)[C@@H](C)[C@H]1O` [Example 100, (4aR,5R,6R,7R)-7-Ethylthio-6-hydroxy-4a,5,6,7-tetrahydro-1,3,4a,5-tetramethrlbenz[f]indol-2(4H)-one]: the IC50 in series [1] came to 119 nM.
